{"source": "patent EP0752872B1", "about": "“NADH OXIDASE AS A TARGET IN DIAGNOSIS AND THERAPY” (Morré, D. James, priority 1994, dated 1995)", "test_system": "plasma membrane NADH oxidase", "test": "Spectrophotometric NADH oxidase assay, rat liver plasma membranes (normal cells)", "format": "biochemical", "method": "Purification of plasma membranes from rat liver. A 5000 x g pellet from the preparation of Golgi apparatus (Morré (1971) Meth. Enzymol. 22, 130-148) was the starting material. The fluffy layer which contains the Golgi apparatus fraction was mixed, withdrawn and excluded from the plasma membrane preparations. Cold 1 mM NaHCO3 (5 ml) was added to each tube and the friable yellow-brown upper part of the pellet was resuspended with a pen-brush, leaving the reddish tightly packed bottom part of the pellet undisturbed. The resuspended material was homogenized in aliquots of 5 ml each in a 30 ml stainless steel homogenizer (Duragrind) 20 times by hand. The homogenates were combined, diluted with cold 1 mM NaHCO3 (1:1 dilution), and centrifuged at 6000 x g in a HB rotor for 15 min. The supernatant was discarded and the pellet was used for the two-phase separation (Morré & Morré (1989) BioTechniques 7:946-958).\nThe two-phase system contained 6.4% (w/w) Dextran T-500 (Pharmacia), 6.4% (w/w) polyethylene glycol) 3350 (Fisher), and 5 mM potassium phosphate buffer (pH 7.2) (Morré & Morré, 1989, supra). The homogenate (1 g) was added to the two-phase system and the weight of the system was brought to 8 g with distilled water. The tubes were inverted vigorously for 40 times in the cold (4°C). The phases were separated by centrifugation at 750 rpm (150 x g) in a Sorvall HB 4 rotor for 5 min. The upper phases were carefully withdrawn with a pasteur pipette, divided in half and transferred into 40 ml plastic centrifuge tubes and diluted with cold 1 mM NaHCO3. The purified plasma membranes were collected by centrifugation at 10,000 x g in a HB rotor for 30 min. Plasma membrane pellets were resuspended in 50 mM Tris-Mes buffer (pH 7.2) and stored at -70°C. Proteins were determined using the bicinchoninic acid (BCA) assay (Smith et al. (1985) Anal. Biochem. […]: 76-85) with bovine serum albumin as standard.\nSpectrophometric assay of NADH oxidase. NADH oxidase activity was determined as the disappearance of NADH measured at 340 nm in a reaction mixture containing 25 mM Tris-MES buffer (pH 7.2), 1 mM KCN to inhibit the low levels of contaminating mitochondrial oxidase activity, and 150 µM NADH at 37°C with constant stirring. Activity was measured using a Hitachi U3210 spectrophotometer with continuous recording over two intervals of 5 min each. A millimolar extinction coefficient of 6.22 was used to determine specific activity."}
{"compound": "COc1cc(CNC(=O)CCCC/C=C/C(C)C)ccc1O", "note": "[capsaicin]", "values": [{"measurement": "effect on NADH oxidase activity (in words)", "value": "no effect"}]}
